Earlier results as cited in patent publication US20090318548A1, “PARA-QUINOL DERIVATIVES AND METHODS OF STEREO SELECTIVELY SYNTHESIZING AND USING SAME” (UNIVERSITY OF NORTHERN BRITISH COLUMBIA, priority 2006, published 2009).

What was measured:
Bacillus subtilis YycG = Bacillus subtilis YycG (Bacillus subtilis, UniProt Q45614); details: for inhibition of Bacillus subtilis YycG (comparative experiments): established antibiotics as comparators
[1] = target: T1, YycG from Staphylococcus aureus (Staphylococcus aureus, UniProt Q2G2U4); details: read-out: IC50, inhibition of YycG
T1 sequence (Q2G2U4 1-608): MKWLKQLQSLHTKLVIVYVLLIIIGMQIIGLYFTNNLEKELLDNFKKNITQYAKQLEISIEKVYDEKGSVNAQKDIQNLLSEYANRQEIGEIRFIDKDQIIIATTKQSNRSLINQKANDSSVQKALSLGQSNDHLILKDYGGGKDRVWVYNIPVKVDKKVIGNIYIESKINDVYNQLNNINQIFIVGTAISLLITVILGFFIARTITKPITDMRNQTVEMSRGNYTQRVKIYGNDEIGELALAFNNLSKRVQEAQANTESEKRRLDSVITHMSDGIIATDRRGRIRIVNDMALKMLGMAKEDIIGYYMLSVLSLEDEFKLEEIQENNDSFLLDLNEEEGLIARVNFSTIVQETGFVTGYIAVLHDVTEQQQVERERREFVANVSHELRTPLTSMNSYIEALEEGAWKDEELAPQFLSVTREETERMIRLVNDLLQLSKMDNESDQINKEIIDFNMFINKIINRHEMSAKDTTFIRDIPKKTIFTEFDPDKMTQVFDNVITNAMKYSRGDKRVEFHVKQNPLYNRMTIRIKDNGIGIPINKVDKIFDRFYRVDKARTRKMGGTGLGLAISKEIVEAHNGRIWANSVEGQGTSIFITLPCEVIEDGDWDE

[2] = target: POLO-like kinase 1 (Plk1) enzyme (Homo sapiens, UniProt P53350)
POLO-like kinase 1 (Plk1) enzyme, sequence (P53350 whole entry, species assumed): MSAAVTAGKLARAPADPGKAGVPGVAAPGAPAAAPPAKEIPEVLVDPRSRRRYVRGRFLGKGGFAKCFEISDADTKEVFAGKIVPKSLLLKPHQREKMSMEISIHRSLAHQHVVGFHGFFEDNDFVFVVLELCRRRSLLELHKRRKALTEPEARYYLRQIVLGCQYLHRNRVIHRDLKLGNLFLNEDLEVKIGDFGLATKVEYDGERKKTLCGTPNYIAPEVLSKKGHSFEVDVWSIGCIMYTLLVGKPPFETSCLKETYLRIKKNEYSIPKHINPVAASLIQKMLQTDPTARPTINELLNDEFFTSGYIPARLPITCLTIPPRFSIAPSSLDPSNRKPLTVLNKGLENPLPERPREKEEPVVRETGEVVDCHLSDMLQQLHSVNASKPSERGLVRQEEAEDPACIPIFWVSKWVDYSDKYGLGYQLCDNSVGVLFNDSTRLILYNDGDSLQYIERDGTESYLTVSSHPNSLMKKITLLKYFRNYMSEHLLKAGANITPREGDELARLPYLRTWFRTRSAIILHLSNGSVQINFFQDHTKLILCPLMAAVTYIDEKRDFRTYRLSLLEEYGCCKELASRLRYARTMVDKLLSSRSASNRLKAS

Bacillus subtilis YycG, sequence (Q45614 whole entry): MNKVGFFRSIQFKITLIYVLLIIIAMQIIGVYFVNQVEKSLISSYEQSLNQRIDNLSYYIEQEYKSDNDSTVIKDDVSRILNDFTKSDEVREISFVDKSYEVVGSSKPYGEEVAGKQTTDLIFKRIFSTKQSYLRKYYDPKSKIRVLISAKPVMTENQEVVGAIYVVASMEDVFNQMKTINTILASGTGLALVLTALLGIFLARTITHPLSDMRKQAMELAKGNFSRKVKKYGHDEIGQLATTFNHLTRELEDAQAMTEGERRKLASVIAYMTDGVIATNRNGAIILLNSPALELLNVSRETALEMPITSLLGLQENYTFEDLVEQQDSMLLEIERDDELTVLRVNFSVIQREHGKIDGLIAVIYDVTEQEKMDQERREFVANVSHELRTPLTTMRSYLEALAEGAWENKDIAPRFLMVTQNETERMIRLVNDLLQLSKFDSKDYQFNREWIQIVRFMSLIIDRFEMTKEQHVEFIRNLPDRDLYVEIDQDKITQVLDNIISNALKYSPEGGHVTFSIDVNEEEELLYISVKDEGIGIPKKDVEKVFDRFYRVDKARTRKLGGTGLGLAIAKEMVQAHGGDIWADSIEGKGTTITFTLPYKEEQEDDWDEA

Compound | inhibition of Bacillus subtilis YycG (comparative experiments) (Bacillus subtilis YycG) | other results
CC[C@H]1OC(=O)[C@H](C)[C@@H](O[C@H]2C[C@@](C)(OC)[C@@H](O)[C@H](C)O2)[C@H](C)[C@@H](O[C@@H]2O[C@H](C)C[C@H](N(C)C)[C@H]2O)[C@](C)(O)C[C@@H](C)C(=O)[C@H](C)[C@@H](O)[C@]1(C)O [erythromycin] | negligible inhibition | –
CCCCCCC(C)/C=C(C)/C=C/C(=O)N[C@H]1CC2(O[C@H]1O)[C@@H]1O[C@@H]1C(O)(CC(C)=O)[C@@H]1O[C@@H]12 (stereo partly drawn) [Aranorosinol B] | – | IC50 [1]: 211 µM; IC50 (Bacillus subtilis YycG; YycG from Bacillus subtilis, read-out: IC50, inhibition of YycG): 223 µM
CCCCCCC(C)/C=C(C)/C=C/C(=O)NC1CC2(OC1O)C1OC1C(O)C1OC12 (stereo not drawn) [Aranorosinol A] | – | inhibition of Plk1 enzyme [2]: 118 µM
NCC[C@H](O)C(=O)N[C@@H]1C[C@H](N)[C@@H](O[C@H]2O[C@H](CN)[C@@H](O)[C@H](O)[C@H]2O)[C@H](O)[C@H]1O[C@H]1O[C@H](CO)[C@@H](O)[C@H](N)[C@H]1O [amikacin] | negligible inhibition | –
Cc1nnc(SCC2=C(C(=O)O)N3C(=O)[C@@H](NC(=O)Cn4cnnn4)[C@H]3SC2)s1 [cefazolin] | negligible inhibition | –
